Read-outs that look alike come from different tables or passages of the source.
Columns and labels:
[1] = test system: Key Broadleaf Weed and Crop Species; experiment: Post-Emergent Test II: postemergent herbicidal activity, visual rating after 14 d (Table 7); type: in vivo; details: post-emergence, 336 h; for pest or weed control at 35 g/ha: 35 g ai/ha; for pest or weed control at 70 g/ha: 70 g ai/ha; for pest or weed control at 140 g/ha: 140 g ai/ha
How it was run: (§1)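 Visual 0-100% injury score (0 no injury, 100 complete kill) at 14 d post-spray, relative to untreated plants. Seedlings at 1st-2nd true leaf stage; track sprayer at 187 L/ha, highest rate plus ½×, ¼×, ⅛×, 1/16× serial dilutions. Subirrigated after treatment.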

[2] = test system: Key Grass and Sedge Weeds as well as Grass Crops; experiment: Post-Emergent Test II: postemergent herbicidal activity, visual rating after 14 d (Table 8); type: in vivo; details: post-emergence, 336 h; for pest or weed control at 35 g/ha: 35 g ai/ha; for pest or weed control at 70 g/ha: 70 g ai/ha; for pest or weed control at 140 g/ha: 140 g ai/ha
How it was run: as §1

[3] = lambsquarters (Chenopodium album), read-out: Visual Growth Reduction (%) 14 Days After Application CHEAL
[4] = oilseed rape, canola (Brassica napus), read-out: Visual Growth Reduction (%) 14 Days After Application BRSNN
[5] = redroot pigweed (Amaranthus retroflexus), read-out: Visual Growth Reduction (%) 14 Days After Application AMARE
[6] = sunflower (Helianthus annuus), read-out: Visual Growth Reduction (%) 14 Days After Application HELAN
[7] = velvetleaf (Abutilon theophrasti), read-out: Visual Growth Reduction (%) 14 Days After Application ABUTH
[8] = wild poinsettia (Euphorbia heterophylla), read-out: Visual Growth Reduction (%) 14 Days After Application EPHHL
[9] = barnyardgrass (Echinochloa crus-galli), read-out: Visual Growth Reduction (%) 14 Days After Application ECHCG
[10] = giant foxtail (Setaria faberi), read-out: Visual Growth Reduction (%) 14 Days After Application SETFA
[11] = maize, corn (Zea mays), read-out: Visual Growth Reduction (%) 14 Days After Application ZEAMX
[12] = rice (Oryza sativa), read-out: Visual Growth Reduction (%) 14 Days After Application ORYSA
[13] = wheat, spring (Triticum aestivum), read-out: Visual Growth Reduction (%) 14 Days After Application TRZAS
[14] = yellow nutsedge (Cyperus esculentus), read-out: Visual Growth Reduction (%) 14 Days After Application CYPES

Structure (SMILES) | pest or weed control at 35 g/ha [1, 3] [%] | pest or weed control at 70 g/ha [1, 3] [%] | pest or weed control at 140 g/ha [1, 3] [%] | pest or weed control at 35 g/ha [1, 4] [%] | pest or weed control at 70 g/ha [1, 4] [%] | pest or weed control at 140 g/ha [1, 4] [%] | pest or weed control at 35 g/ha [1, 5] [%] | pest or weed control at 70 g/ha [1, 5] [%] | pest or weed control at 140 g/ha [1, 5] [%] | pest or weed control at 35 g/ha [1, 6] [%] | pest or weed control at 70 g/ha [1, 6] [%] | pest or weed control at 140 g/ha [1, 6] [%] | pest or weed control at 35 g/ha [1, 7] [%] | pest or weed control at 70 g/ha [1, 7] [%] | pest or weed control at 140 g/ha [1, 7] [%] | pest or weed control at 35 g/ha [1, 8] [%] | pest or weed control at 70 g/ha [1, 8] [%] | pest or weed control at 140 g/ha [1, 8] [%] | pest or weed control at 70 g/ha [2, 9] [%] | pest or weed control at 140 g/ha [2, 9] [%] | other results
Nc1c(F)c(-c2ccc(I)c3c2OC(F)(F)O3)nc(C(=O)O)c1Cl [Compound 81] | 85 to 94 | 85 to 94 | 85 to 94 | 75 to 84 | 85 to 94 | 95 to 100 | 95 to 100 | 95 to 100 | 95 to 100 | 85 to 94 | 85 to 94 | 85 to 94 | 0 to 29 | 60 to 74 | 75 to 84 | 0 to 29 | 0 to 29 | 0 to 29 | 0 to 29 | 0 to 29 | pest or weed control at 35 g/ha [2, 9]: 0 to 29%; pest or weed control at 35 g/ha [2, 10]: 0 to 29%; pest or weed control at 70 g/ha [2, 10]: 0 to 29%; pest or weed control at 140 g/ha [2, 10]: 0 to 29%; pest or weed control at 35 g/ha [2, 11]: 0 to 29%; pest or weed control at 70 g/ha [2, 11]: 0 to 29%; pest or weed control at 140 g/ha [2, 11]: 0 to 29%; pest or weed control at 35 g/ha [2, 12]: 0 to 29%; pest or weed control at 70 g/ha [2, 12]: 0 to 29%; pest or weed control at 140 g/ha [2, 12]: 0 to 29%; pest or weed control at 35 g/ha [2, 13]: 0 to 29%; pest or weed control at 70 g/ha [2, 13]: 0 to 29%; pest or weed control at 140 g/ha [2, 13]: 0 to 29%; pest or weed control at 35 g/ha [2, 14]: 0 to 29%; pest or weed control at 70 g/ha [2, 14]: 0 to 29%; pest or weed control at 140 g/ha [2, 14]: 0 to 29%
COc1c(N)nc(-c2ccc3c(c2)OC(F)(F)O3)nc1C(=O)O [Compound 63] | 0 to 29 | 0 to 29 | 0 to 29 | 60 to 74 | 75 to 84 | 75 to 84 | 0 to 29 | 30 to 44 | 60 to 74 | 85 to 94 | 85 to 94 | 85 to 94 | 85 to 94 | 60 to 74 | 85 to 94 | 95 to 100 | 95 to 100 | 95 to 100 | 95 to 100 | 95 to 100 | pest or weed control at 35 g/ha [2, 10]: 75 to 84%; pest or weed control at 70 g/ha [2, 10]: 95 to 100%; pest or weed control at 140 g/ha [2, 10]: 95 to 100%; pest or weed control at 35 g/ha [2, 11]: 95 to 100%; pest or weed control at 70 g/ha [2, 11]: 95 to 100%; pest or weed control at 140 g/ha [2, 11]: 95 to 100%; pest or weed control at 35 g/ha [2, 12]: 0 to 29%; pest or weed control at 70 g/ha [2, 12]: 0 to 29%; pest or weed control at 140 g/ha [2, 12]: 0 to 29%; pest or weed control at 35 g/ha [2, 13]: 45 to 59%; pest or weed control at 70 g/ha [2, 13]: 45 to 59%; pest or weed control at 140 g/ha [2, 13]: 45 to 59%; pest or weed control at 35 g/ha [2, 14]: 95 to 100%; pest or weed control at 70 g/ha [2, 14]: 95 to 100%; pest or weed control at 140 g/ha [2, 14]: 95 to 100%

— patent US9149038B2, “4-amino-6-(heterocyclic)picolinates and 6-amino-2-(heterocyclic)pyrimidine-4-carboxylates and their use as herbicides” (Dow AgroSciences LLC, priority 2013, dated 2015)
